Measurements as given in the NIST ThermoML archive (doi:10.1016/j.jct.2005.05.007).
± gives the expanded uncertainty stated by the source.

Columns and labels:
[1] = refractive index (Na D-line) (dimensionless); settings: 298.15 K; 101.33 kPa; Liquid; Standard Abbe refractometry
[2] = 298.15 K; 101.33 kPa; Liquid; Vibrating tube method
[3] = xn = mol fraction of the nth substance listed; settings: 298.15 K, 101 kPa, Liquid, Vibrating tube method

CC(C)O [propan-2-ol]
Settings | mass density [kg/m3] | refractive index
[1] | – | 1.3748 ± 0.0008
[2] | 780.9 ± 0.4 | –

CCC#N [propanenitrile] + CCCCCO
[3]
Settings | mass density [kg/m3]
x2 = 0.0353 | 778.3 ± 0.4
x2 = 0.0649 | 779.6 ± 0.5
x2 = 0.1026 | 781.1 ± 0.5
x2 = 0.1379 | 782.6 ± 0.5
x2 = 0.1786 | 784.2 ± 0.5
x2 = 0.2164 | 785.7 ± 0.5
x2 = 0.2613 | 787.5 ± 0.5
x2 = 0.3031 | 789.1 ± 0.5
x2 = 0.3464 | 790.7 ± 0.6
x2 = 0.3917 | 792.4 ± 0.6
x2 = 0.4396 | 794.1 ± 0.6
x2 = 0.489 | 795.8 ± 0.6
x2 = 0.5444 | 797.7 ± 0.6
x2 = 0.6012 | 799.5 ± 0.7
x2 = 0.6547 | 801.2 ± 0.7
x2 = 0.7186 | 803.2 ± 0.7
x2 = 0.7788 | 804.9 ± 0.7
x2 = 0.8488 | 806.9 ± 0.8
x2 = 0.9162 | 808.7 ± 0.8

CCC#N [propanenitrile] + CO
[3]
Settings | mass density [kg/m3]
x2 = 0.0822 | 777.3 ± 0.4
x2 = 0.1672 | 777.9 ± 0.4
x2 = 0.2338 | 778.4 ± 0.4
x2 = 0.2992 | 779 ± 0.4
x2 = 0.3634 | 779.7 ± 0.4
x2 = 0.4258 | 780.3 ± 0.4
x2 = 0.4879 | 781 ± 0.4
x2 = 0.5403 | 781.6 ± 0.4
x2 = 0.5844 | 782.1 ± 0.4
x2 = 0.6226 | 782.6 ± 0.4
x2 = 0.6752 | 783.3 ± 0.4
x2 = 0.7183 | 783.8 ± 0.4
x2 = 0.763 | 784.4 ± 0.4
x2 = 0.7996 | 784.8 ± 0.4
x2 = 0.8366 | 785.3 ± 0.4
x2 = 0.8743 | 785.8 ± 0.4
x2 = 0.9088 | 786.1 ± 0.4
x2 = 0.9384 | 786.3 ± 0.4
x2 = 0.9696 | 786.5 ± 0.4

CCO [ethanol]
Settings | mass density [kg/m3] | refractive index
[1] | – | 1.3593 ± 0.0008
[2] | 785.1 ± 0.4 | –

CCCCCO [pentan-1-ol]
Settings | mass density [kg/m3] | refractive index
[1] | – | 1.4078 ± 0.0008
[2] | 810.8 ± 0.8 | –

CCCCO [butan-1-ol]
Settings | mass density [kg/m3] | refractive index
[1] | – | 1.397 ± 0.0008
[2] | 805.8 ± 0.8 | –

CCCO [propan-1-ol]
Settings | mass density [kg/m3] | refractive index
[1] | – | 1.3834 ± 0.0008
[2] | 799.6 ± 0.4 | –

CCC#N [propanenitrile] + CC(C)O
[3]
Settings | mass density [kg/m3]
x2 = 0.0579 | 776.1 ± 0.4
x2 = 0.0955 | 775.8 ± 0.4
x2 = 0.1396 | 775.5 ± 0.4
x2 = 0.183 | 775.4 ± 0.4
x2 = 0.2321 | 775.3 ± 0.4
x2 = 0.2775 | 775.4 ± 0.4
x2 = 0.3274 | 775.5 ± 0.4
x2 = 0.3784 | 775.6 ± 0.4
x2 = 0.4249 | 775.8 ± 0.4
x2 = 0.4768 | 776 ± 0.4
x2 = 0.5385 | 776.4 ± 0.4
x2 = 0.5752 | 776.6 ± 0.4
x2 = 0.6307 | 777 ± 0.4
x2 = 0.6763 | 777.4 ± 0.4
x2 = 0.7286 | 777.9 ± 0.4
x2 = 0.7788 | 778.4 ± 0.4
x2 = 0.8384 | 779.1 ± 0.4
x2 = 0.8929 | 779.7 ± 0.4
x2 = 0.9416 | 780.2 ± 0.4

CCC#N [propanenitrile] + CCCO
[3]
Settings | mass density [kg/m3]
x2 = 0.0465 | 777.6 ± 0.4
x2 = 0.0955 | 778.5 ± 0.4
x2 = 0.143 | 779.4 ± 0.4
x2 = 0.1882 | 780.3 ± 0.4
x2 = 0.2387 | 781.4 ± 0.4
x2 = 0.2837 | 782.4 ± 0.4
x2 = 0.3347 | 783.6 ± 0.4
x2 = 0.3775 | 784.6 ± 0.4
x2 = 0.4341 | 786 ± 0.4
x2 = 0.4827 | 787.2 ± 0.4
x2 = 0.5841 | 789.7 ± 0.4
x2 = 0.6371 | 791 ± 0.4
x2 = 0.7389 | 793.5 ± 0.4
x2 = 0.7795 | 794.5 ± 0.4
x2 = 0.8329 | 795.8 ± 0.4
x2 = 0.8919 | 797.2 ± 0.4
x2 = 0.9355 | 798.2 ± 0.4

CO [methanol]
Settings | mass density [kg/m3] | refractive index
[1] | – | 1.3265 ± 0.0008
[2] | 786.6 ± 0.4 | –

CCC#N [propanenitrile]
Settings | mass density [kg/m3] | refractive index
[1] | – | 1.3633 ± 0.0008
[2] | 776.8 ± 0.4 | –

CCC#N [propanenitrile] + CCO
[3]
Settings | mass density [kg/m3]
x2 = 0.0627 | 776.8 ± 0.4
x2 = 0.129 | 777 ± 0.4
x2 = 0.1754 | 777.2 ± 0.4
x2 = 0.2486 | 777.6 ± 0.4
x2 = 0.2872 | 777.9 ± 0.4
x2 = 0.3419 | 778.4 ± 0.4
x2 = 0.3978 | 778.9 ± 0.4
x2 = 0.4563 | 779.5 ± 0.4
x2 = 0.5001 | 780 ± 0.4
x2 = 0.5577 | 780.6 ± 0.4
x2 = 0.6025 | 781.1 ± 0.4
x2 = 0.6433 | 781.6 ± 0.4
x2 = 0.6925 | 782.2 ± 0.4
x2 = 0.7416 | 782.7 ± 0.4
x2 = 0.7823 | 783.2 ± 0.4
x2 = 0.8218 | 783.6 ± 0.4
x2 = 0.8737 | 784.2 ± 0.4
x2 = 0.9146 | 784.6 ± 0.4
x2 = 0.9565 | 784.9 ± 0.4

CCC#N [propanenitrile] + CCCCO
[3]
Settings | mass density [kg/m3]
x2 = 0.0391 | 778 ± 0.4
x2 = 0.1177 | 780.4 ± 0.4
x2 = 0.1625 | 781.8 ± 0.4
x2 = 0.1984 | 782.9 ± 0.4
x2 = 0.2481 | 784.4 ± 0.4
x2 = 0.3398 | 787.4 ± 0.4
x2 = 0.385 | 788.7 ± 0.4
x2 = 0.4364 | 790.2 ± 0.4
x2 = 0.4813 | 791.6 ± 0.4
x2 = 0.539 | 793.3 ± 0.4
x2 = 0.5821 | 794.6 ± 0.4
x2 = 0.6363 | 796.2 ± 0.4
x2 = 0.7036 | 798.1 ± 0.4
x2 = 0.7441 | 799.2 ± 0.4
x2 = 0.8103 | 801 ± 0.4
x2 = 0.8795 | 802.8 ± 0.4
x2 = 0.9334 | 804.1 ± 0.4
